Measured values as given in ChEMBL document CHEMBL1201862, “PubChem BioAssay data set” (2004).
The source made the active and inactive calls.

What was measured:
[1] = molecular target: Adenosylmethionine-8-amino-7-oxononanoate aminotransferase (Mycobacterium tuberculosis, UniProt P9WQ81); test: Mycobacterium tuberculosis BioA enzyme inhibitor Measured in Biochemical System Using Plate Reader - 2163-02_Inhibitor_Dose_CherryPick_Activity.; format: functional, Mycobacterium tuberculosis UT205
Insulin-degrading enzyme [2] = molecular target: T1, Insulin-degrading enzyme (Homo sapiens, UniProt P14735); test: recombinant IDE activation, cell-free – biochemical, fluorescence polarization, counter-screen for IDE activator project, dose response (AID 588681)
T1 sequence (P14735 whole entry): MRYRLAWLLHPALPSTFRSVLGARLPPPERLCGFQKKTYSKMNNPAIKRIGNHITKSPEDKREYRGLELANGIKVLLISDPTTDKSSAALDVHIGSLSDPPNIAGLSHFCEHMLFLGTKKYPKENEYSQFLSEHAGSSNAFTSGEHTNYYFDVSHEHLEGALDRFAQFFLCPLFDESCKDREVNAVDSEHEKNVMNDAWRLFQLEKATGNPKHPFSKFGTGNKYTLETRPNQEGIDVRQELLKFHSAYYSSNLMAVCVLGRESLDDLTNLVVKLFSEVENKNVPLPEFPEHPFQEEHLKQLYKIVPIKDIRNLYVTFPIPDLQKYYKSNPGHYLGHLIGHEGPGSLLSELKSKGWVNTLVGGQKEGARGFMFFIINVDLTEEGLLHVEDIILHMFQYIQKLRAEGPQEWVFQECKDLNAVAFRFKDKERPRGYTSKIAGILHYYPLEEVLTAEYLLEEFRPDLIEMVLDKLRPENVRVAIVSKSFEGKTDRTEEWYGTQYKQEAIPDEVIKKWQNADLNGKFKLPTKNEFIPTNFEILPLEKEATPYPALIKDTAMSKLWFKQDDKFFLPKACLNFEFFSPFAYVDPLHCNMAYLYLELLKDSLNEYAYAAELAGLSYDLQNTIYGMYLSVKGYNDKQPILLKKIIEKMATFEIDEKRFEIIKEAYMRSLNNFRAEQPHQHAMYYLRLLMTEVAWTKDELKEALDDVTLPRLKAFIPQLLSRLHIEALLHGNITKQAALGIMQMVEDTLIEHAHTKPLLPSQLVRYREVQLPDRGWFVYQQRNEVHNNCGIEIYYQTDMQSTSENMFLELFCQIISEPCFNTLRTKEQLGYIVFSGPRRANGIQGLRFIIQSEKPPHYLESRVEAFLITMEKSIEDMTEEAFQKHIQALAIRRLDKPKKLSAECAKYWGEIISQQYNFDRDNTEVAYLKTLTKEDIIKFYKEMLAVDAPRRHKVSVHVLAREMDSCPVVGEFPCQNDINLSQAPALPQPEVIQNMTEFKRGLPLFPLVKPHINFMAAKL

HEK293 [3] = test: membrane integrity loss in HEK cells – cell-based, fluorescence, cytotoxicity control for IDE activator project, dose response (AID 588440); format: functional; conditions: Homo sapiens;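 note: cytotoxicity by LDH release measuring loss of membrane integrity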
HEK293 [4] = test: optical interference in Abeta FP readout, dose response, artefact control for IDE activator project, biochemical, fluorescence polarization (AID 588442); format: functional, cell-based; conditions: Homo sapiens
Insulin-degrading enzyme [5] = molecular target: T1, Insulin-degrading enzyme; test: cellular IDE activation of Abeta substrate cleavage – fluorescence polarization, HEK cells, dose response (AID 588439); format: functional, cell-based
[6] = molecular target: Peroxisome proliferator-activated receptor gamma/Nuclear receptor coactivator 1 (Homo sapiens, UniProt P37231); format: functional;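 note: agonist potency as compounds enhance coactivator SRC-1 recruitment to PPARgamma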
[7] = molecular target: Peroxisome proliferator-activated receptor gamma/Nuclear receptor coactivator 3 (Homo sapiens, UniProt P37231); format: functional;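 note: agonist potency for raising coactivator recruitment to the receptor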
[8] = molecular target: Peroxisome proliferator-activated receptor gamma/Nuclear receptor coactivator 2 (Homo sapiens, UniProt P37231); format: functional;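 note: agonist potency for raising coactivator recruitment to the receptor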
ORF 73 = molecular target: T2, ORF 73 (Human herpesvirus 8, UniProt O40947); test: KSHV LANA DNA-binding disruption – biochemical, fluorescence polarization, cherry-picked samples, dose response (AID 504725); parameters: species or system Human gammaherpesvirus 8;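 note: fluorescence polarization of a labeled DNA duplex reporting LANA DNA binding; potency is for inhibitors that block LANA binding to the DNA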
T2 sequence (O40947 whole entry): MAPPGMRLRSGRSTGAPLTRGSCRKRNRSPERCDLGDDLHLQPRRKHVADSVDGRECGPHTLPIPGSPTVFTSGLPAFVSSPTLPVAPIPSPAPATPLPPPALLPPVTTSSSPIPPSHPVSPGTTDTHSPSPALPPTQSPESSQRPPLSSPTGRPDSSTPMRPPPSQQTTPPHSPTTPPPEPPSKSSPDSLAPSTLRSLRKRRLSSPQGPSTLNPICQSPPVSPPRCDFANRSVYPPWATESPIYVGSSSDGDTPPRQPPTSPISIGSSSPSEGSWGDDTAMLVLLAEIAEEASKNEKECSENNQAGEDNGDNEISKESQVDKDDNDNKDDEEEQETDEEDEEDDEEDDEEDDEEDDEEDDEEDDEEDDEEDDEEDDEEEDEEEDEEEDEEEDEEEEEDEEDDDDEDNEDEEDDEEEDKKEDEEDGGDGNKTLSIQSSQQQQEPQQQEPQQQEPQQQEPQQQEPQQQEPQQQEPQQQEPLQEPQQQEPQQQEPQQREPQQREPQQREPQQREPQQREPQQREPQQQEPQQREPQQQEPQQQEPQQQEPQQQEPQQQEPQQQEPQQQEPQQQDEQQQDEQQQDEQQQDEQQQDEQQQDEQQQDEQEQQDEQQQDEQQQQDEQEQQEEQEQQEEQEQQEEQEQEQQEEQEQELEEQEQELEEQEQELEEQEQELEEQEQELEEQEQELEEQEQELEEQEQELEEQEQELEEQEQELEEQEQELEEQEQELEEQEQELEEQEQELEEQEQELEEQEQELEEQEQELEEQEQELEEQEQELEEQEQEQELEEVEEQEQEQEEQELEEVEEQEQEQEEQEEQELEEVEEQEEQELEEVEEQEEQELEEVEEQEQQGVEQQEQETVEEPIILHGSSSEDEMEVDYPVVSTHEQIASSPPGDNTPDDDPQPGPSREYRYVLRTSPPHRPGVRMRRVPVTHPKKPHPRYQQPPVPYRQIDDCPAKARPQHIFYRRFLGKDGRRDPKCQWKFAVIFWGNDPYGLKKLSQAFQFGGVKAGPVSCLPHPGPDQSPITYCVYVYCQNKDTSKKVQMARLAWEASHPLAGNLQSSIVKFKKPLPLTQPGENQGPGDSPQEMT

[9] = molecular target: T3, Mitochondrial peptide methionine sulfoxide reductase (Bos taurus, UniProt P54149); test: Absorbance-based biochemical high throughput dose response assay for activators of Methionine sulfoxide reductase A (MsrA).; format: functional
T3 sequence (P54149 whole entry): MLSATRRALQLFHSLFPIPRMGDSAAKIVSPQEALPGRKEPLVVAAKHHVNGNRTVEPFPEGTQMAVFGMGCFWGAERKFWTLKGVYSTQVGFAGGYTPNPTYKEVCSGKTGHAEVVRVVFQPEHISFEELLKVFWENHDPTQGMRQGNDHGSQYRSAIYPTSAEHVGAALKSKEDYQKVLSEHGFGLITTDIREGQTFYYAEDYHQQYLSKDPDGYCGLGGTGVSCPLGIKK

[10] = molecular target: T3, Mitochondrial peptide methionine sulfoxide reductase; format: functional
Interleukin-8 [11] = molecular target: T4, Interleukin-8 (Homo sapiens, UniProt P10145); test: Dose Response confirmation of uHTS small molecule hits for cystic fibrosis induced NFkb Inhibitors in a TNFa-induced IL8 counterscreen.; format: functional; conditions: read-out: IC50_Mean
T4 sequence (P10145 whole entry): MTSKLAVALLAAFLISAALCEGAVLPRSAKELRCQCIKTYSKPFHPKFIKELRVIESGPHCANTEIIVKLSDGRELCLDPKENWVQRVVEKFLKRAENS

Interleukin-8 [12] = molecular target: T4, Interleukin-8; test: Dose Response confirmation of uHTS small molecule hits for cystic fibrosis induced NFkb Inhibitors in a PAF-induced IL8 counterscreen.; format: functional; conditions: read-out: IC50_Mean
[13] = blockers of bursicon-stimulated LGR2 cAMP reporter – cell-based, HEK293, CRE-luciferase reporter, cherry pick, set 2, dose response (AID 743343); format: functional;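 note: transfected cells were stimulated with diluted bursicon conditioned medium after compound addition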
[14] = blockade of melanocortin 4 receptor signaling – cell-based, plate reader, cherry pick, counter-screen for LGR2 antagonist project, dose response (AID 743444); format: functional;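 note: transfected HEK 293 cells stimulated with alpha-MSH peptide; potency of inhibitors of the alpha-MSH evoked signal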
[15] = toxicity toward HepG2 liver cells – cell-based, plate reader, cherry-pick, antagonist series, cytotoxicity control, dose response (AID 743416); format: functional
Protein skinhead-1 = molecular target: T5, Protein skinhead-1 (Caenorhabditis elegans, UniProt P34707); format: functional
T5 sequence (P34707 whole entry): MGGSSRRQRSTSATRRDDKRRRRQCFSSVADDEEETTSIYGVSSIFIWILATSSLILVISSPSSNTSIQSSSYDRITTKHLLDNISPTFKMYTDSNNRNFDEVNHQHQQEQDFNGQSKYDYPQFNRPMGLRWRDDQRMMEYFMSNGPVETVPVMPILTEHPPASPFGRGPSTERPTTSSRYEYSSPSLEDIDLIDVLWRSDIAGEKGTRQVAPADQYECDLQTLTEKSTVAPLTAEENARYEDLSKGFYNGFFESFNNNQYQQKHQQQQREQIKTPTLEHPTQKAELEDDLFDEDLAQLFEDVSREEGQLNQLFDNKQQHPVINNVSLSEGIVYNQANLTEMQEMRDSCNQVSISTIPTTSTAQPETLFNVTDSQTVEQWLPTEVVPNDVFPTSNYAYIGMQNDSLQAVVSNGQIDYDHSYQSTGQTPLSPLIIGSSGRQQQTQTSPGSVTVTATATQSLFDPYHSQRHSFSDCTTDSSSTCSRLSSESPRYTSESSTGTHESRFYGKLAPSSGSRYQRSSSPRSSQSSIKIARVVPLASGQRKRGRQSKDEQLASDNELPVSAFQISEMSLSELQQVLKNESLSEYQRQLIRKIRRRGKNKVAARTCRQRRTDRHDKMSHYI

[16] = molecular target: T6, Low molecular weight phosphotyrosine protein phosphatase (Homo sapiens, UniProt P24666); format: functional; conditions: read-out: IC50_Mean;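 note: Dose-response confirmation assay measuring inhibition of LMPTP enzyme activity by fluorescence intensity read-out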
T6 sequence (P24666 whole entry): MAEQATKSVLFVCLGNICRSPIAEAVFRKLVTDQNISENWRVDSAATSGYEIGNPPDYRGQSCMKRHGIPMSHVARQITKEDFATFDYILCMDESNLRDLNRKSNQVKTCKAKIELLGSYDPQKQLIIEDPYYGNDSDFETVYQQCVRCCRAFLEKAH

[17] = molecular target: DNA (cytosine-5)-methyltransferase 1 (Homo sapiens, UniProt P26358); test: inhibition of DNA methylation by DNMT1 – biochemical, fluorescent molecular beacon, confirmation (AID 602386); format: functional
Sequence of DNA (cytosine-5)-methyltransferase 1 (P26358 whole entry): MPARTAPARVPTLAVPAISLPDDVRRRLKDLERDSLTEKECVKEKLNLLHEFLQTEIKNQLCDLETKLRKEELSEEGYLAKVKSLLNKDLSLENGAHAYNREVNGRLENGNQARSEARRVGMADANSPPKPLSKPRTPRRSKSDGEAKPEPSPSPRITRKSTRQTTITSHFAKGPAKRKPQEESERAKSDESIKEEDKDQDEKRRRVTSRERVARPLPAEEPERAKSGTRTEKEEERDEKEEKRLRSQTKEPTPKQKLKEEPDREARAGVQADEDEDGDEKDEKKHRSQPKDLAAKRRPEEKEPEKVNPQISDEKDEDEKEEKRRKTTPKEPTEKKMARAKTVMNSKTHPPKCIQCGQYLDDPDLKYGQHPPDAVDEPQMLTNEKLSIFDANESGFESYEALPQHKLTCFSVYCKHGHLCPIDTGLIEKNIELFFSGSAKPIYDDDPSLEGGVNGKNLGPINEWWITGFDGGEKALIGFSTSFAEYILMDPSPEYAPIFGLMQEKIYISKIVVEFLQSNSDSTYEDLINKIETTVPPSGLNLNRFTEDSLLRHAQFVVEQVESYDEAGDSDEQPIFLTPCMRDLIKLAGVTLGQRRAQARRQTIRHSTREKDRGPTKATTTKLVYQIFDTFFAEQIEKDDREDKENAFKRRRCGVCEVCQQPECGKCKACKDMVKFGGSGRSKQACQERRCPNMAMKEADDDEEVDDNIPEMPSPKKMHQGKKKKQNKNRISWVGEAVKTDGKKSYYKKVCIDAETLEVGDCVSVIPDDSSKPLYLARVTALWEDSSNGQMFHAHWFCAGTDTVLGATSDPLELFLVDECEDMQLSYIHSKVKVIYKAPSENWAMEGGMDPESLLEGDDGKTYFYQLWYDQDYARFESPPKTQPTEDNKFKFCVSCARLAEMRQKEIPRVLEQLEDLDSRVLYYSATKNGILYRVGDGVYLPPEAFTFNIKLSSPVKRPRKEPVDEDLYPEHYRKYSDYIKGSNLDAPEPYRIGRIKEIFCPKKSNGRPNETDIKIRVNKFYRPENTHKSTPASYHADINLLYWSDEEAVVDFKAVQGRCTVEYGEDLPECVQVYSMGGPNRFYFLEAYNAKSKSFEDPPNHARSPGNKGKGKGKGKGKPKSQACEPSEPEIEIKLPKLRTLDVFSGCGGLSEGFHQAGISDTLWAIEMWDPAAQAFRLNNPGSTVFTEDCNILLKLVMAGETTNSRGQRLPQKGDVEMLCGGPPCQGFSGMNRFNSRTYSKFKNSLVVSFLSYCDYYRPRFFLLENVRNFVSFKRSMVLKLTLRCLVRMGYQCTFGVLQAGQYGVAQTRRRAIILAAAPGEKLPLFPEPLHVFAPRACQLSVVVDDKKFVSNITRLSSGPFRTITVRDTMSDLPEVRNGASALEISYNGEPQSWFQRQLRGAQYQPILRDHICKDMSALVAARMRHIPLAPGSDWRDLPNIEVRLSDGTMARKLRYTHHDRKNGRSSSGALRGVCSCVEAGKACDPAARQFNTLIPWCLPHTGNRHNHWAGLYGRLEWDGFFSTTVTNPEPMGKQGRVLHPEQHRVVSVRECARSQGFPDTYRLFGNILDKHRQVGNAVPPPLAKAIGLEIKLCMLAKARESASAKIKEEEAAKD

Sequence of Adenosylmethionine-8-amino-7-oxononanoate aminotransferase (P9WQ81 whole entry): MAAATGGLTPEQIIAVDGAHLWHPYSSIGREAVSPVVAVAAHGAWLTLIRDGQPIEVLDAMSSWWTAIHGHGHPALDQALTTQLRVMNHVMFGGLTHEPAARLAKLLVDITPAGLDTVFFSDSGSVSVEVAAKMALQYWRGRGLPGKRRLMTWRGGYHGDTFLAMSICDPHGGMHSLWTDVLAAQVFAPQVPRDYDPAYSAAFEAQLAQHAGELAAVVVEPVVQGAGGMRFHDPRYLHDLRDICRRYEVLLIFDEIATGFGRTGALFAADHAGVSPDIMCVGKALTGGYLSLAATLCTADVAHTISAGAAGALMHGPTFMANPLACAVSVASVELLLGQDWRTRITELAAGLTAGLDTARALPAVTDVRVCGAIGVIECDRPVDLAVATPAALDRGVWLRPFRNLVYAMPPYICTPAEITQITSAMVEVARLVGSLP
Sequence of Peroxisome proliferator-activated receptor gamma/Nuclear receptor coactivator 3 (P37231 whole entry): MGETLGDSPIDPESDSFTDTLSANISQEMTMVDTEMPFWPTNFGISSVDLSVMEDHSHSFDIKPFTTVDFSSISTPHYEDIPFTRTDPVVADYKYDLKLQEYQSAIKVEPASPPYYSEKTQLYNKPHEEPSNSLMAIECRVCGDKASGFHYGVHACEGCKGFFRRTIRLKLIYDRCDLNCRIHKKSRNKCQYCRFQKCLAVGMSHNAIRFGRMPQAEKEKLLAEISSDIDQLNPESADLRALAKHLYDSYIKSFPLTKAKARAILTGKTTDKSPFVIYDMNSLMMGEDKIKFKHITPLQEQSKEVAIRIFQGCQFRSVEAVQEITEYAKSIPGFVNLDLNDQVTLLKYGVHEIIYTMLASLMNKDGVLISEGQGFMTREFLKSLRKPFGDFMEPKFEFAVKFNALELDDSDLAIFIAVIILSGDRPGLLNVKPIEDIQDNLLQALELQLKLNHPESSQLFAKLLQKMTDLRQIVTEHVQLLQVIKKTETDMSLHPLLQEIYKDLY
Sequence of Peroxisome proliferator-activated receptor gamma/Nuclear receptor coactivator 3 (Q9Y6Q9 whole entry, further chain): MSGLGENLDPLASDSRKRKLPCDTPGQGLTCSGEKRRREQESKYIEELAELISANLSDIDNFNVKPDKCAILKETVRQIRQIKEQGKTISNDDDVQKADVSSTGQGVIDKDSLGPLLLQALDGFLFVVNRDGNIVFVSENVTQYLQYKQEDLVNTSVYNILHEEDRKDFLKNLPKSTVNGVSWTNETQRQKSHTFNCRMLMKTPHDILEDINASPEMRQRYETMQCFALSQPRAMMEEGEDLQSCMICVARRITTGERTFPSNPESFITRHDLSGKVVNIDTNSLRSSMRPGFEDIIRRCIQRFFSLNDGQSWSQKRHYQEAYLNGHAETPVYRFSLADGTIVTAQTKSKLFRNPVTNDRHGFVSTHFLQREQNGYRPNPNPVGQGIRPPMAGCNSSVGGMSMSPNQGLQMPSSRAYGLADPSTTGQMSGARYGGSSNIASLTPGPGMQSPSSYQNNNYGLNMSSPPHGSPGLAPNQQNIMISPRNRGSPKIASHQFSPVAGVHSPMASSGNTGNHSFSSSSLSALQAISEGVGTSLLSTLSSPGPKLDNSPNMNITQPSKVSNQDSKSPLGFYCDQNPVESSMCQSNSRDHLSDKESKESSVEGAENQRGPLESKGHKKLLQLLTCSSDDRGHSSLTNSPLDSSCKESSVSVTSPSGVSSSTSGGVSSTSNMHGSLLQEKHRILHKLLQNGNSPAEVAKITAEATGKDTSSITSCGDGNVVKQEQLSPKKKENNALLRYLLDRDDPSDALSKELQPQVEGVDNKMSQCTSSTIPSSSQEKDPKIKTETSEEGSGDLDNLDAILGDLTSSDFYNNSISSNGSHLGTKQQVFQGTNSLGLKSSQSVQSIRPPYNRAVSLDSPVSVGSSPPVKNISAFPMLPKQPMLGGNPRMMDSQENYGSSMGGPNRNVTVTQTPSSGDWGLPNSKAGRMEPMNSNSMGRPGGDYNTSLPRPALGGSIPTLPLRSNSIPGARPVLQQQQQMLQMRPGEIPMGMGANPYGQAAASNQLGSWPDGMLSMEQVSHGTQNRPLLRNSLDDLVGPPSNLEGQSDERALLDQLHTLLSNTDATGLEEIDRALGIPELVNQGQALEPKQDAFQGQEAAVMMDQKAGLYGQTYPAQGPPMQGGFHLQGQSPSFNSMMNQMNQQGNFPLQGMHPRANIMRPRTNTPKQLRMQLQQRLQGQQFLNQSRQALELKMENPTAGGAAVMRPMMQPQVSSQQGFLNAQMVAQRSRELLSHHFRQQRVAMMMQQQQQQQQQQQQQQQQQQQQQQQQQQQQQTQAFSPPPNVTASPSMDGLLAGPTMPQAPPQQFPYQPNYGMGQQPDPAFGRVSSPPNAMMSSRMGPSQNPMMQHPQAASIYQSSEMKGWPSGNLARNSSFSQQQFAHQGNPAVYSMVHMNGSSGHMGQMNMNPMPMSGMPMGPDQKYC

**Q.** Which AC50 [1] does the source give for `Cc1cc2c(c(=O)n1Cc1cccnc1)C(c1cccs1)C(C#N)=C(N)O2` (centres undefined) here?
**A.** 2.08 µM (active)

**Q.** With `COc1ccc2c(-c3ccccc3)cc(SCC(=O)NC(N)=O)nc2c1` as the molecule, how does the EC50 (Insulin-degrading enzyme [2]) read?
**A.** > 54.7 µM (inactive)

**Q.** And the IC50 (HEK293 [3])?
**A.** 22.3 µM (inactive)

**Q.** What about the EC50 (HEK293 [4]) of the same molecule?
**A.** > 55.9 µM (inactive)

**Q.** What about the EC50 (Insulin-degrading enzyme [5]) of the same molecule?
**A.** > 54.7 µM (inactive)

**Q.** And the EC50 [6]?
**A.** > 79.4 µM (not active)

**Q.** And the EC50 [7]?
**A.** > 79.4 µM (not active)

**Q.** What about the EC50 [8] of the same molecule?
**A.** > 79.4 µM (not active)

**Q.** Which AC50 (ORF 73) does the source give for `CC(=O)OCCn1c2nc(=O)[nH]c(=O)c-2nc2cc(C)c(C)cc21` here?
**A.** 0.246 µM (active)

**Q.** What about the EC50 (Insulin-degrading enzyme [2]) of the same molecule?
**A.** > 54.7 µM (inactive)

**Q.** What about the IC50 (HEK293 [3]) of the same molecule?
**A.** > 89.2 µM (inactive)

**Q.** And the EC50 (HEK293 [4])?
**A.** > 54.7 µM (inactive)

**Q.** What about the EC50 (Insulin-degrading enzyme [5]) of the same molecule?
**A.** > 54.7 µM (inactive)

**Q.** What about the EC50 [9] of the same molecule?
**A.** 54.4 µM (inactive)

**Q.** With `O=C(NC1CCCC1)c1cnn2c(C(F)(F)F)cc(-c3ccc4c(c3)OCO4)nc12` as the molecule, how does the EC50 (Insulin-degrading enzyme [2]) read?
**A.** > 54.7 µM (inactive)

**Q.** And the IC50 (HEK293 [3])?
**A.** > 89.2 µM (inactive)

**Q.** And the EC50 (HEK293 [4])?
**A.** > 55.9 µM (inactive)

**Q.** What about the EC50 (Insulin-degrading enzyme [5]) of the same molecule?
**A.** > 54.7 µM (inactive)

**Q.** For `COc1ccc(CNC(=O)c2ccc(=O)oc2)cc1OC`, which IC50 [10] is on record?
**A.** 151 µM (inactive)

**Q.** Which results are given for `Cc1ccc(-c2cc(C(=O)N(C)Cc3cnn(C)c3C)c3cc(Br)ccc3n2)cc1`?
**A.** IC50 (Interleukin-8 [11]): > 79 µM (inactive); IC50 (Interleukin-8 [12]): 1.11 µM (active); AC50 [13]: 29.1 µM (active); AC50 [14]: 26.6 µM (active); AC50 [15]: 43.1 µM (active)

**Q.** With `COc1cc2c(cc1NC(=O)c1cccnc1)CCCC2` as the molecule, how does the IC50 (Protein skinhead-1) read?
**A.** > 100 µM (inactive)

**Q.** What about the AC50 [1] of the same molecule?
**A.** 9.76 µM (active)

**Q.** Which IC50 [16] does the source give for `C=CCc1cccc2cc(C(=O)NCc3cccnc3)c(=O)oc12` here?
**A.** 21.2 µM (inactive)

**Q.** For `Cn1c2ccccc2c2c(=O)oc3ccccc3c21`, which IC50 [17] is on record?
**A.** > 99 µM (inactive)

**Q.** Which IC50 [17] does the source give for `COc1ccccc1N1CCN(/N=C/c2ccc(Cl)c([N+](=O)[O-])c2)CC1` here?
**A.** > 99 µM (inactive)
